The values that follow come from US20260217697A1, “COMPOUNDS COMPRISING HETEROARYL RINGS AND COMPOSITIONS AND METHODS THEREOF” (lonGen Therapeutics Co., Ltd., priority 2022, published 2026).

In general, IC50 refers to the concentration that gives 50% inhibition. Lower therefore signals greater potency.

Each structure is given as a SMILES string.

The experiment has as its target T1, hTRPV3 (Homo sapiens, UniProt Q8NET8).
T1 construct: The commercially available plasmid with the full-length cDNA of hTRPV3 (791 aa) (NM_001258205.2); host or cells: HEK293T
T1 sequence (Q8NET8 1-791 isoform Q8NET8-2): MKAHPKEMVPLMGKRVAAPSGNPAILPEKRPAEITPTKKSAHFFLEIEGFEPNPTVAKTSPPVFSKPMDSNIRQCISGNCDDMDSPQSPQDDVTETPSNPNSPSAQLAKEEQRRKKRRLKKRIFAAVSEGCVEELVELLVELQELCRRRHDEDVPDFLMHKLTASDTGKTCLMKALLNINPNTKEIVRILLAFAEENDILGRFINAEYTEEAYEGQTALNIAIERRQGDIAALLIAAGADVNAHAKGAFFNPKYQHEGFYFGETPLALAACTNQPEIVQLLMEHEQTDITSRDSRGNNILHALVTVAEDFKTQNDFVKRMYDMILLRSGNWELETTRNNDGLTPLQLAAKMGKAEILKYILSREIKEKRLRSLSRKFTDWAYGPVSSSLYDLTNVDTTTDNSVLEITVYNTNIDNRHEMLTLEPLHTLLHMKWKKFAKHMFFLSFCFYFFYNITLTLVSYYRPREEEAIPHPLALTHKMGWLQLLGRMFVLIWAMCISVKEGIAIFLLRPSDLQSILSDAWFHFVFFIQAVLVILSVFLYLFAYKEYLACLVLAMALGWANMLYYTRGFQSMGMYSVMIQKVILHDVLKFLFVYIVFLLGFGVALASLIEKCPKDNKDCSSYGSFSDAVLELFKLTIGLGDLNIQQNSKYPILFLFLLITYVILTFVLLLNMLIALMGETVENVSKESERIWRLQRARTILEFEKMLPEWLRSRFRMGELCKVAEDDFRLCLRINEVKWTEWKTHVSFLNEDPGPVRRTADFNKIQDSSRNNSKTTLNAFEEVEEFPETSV
As to the kind of experiment: Whole-cell patch-clamp recording of hTRPV3 current in transfected HEK293T cells (2-APB induced). It is filed as cell-based. As to conditions: current induced by 300 μM 2-APB, compounds tested up to 10 μM, room temperature. An outline of the steps:
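IC50 comes from Hill fits, 0–100% bounds, of percent block of 2-APB-induced current, with compounds perfused at up to 10 μM. Currents elicited at +80/−80 mV (400-ms steps, 2-s interval, 0 mV hold), room temperature, symmetric NaCl/EDTA/HEPES pH 7.4 solutions. Cells: hTRPV3-transfected HEK293T, used 18 h after transfection.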
Background: The patch-clamp technique gives a direct electrical read-out from membranes.
Regarding `COc1ncnc(OC)c1C(=O)Nc1nc2c(s1)C1(CN(C(C)C)C1)Oc1cc(C(F)(F)F)ccc1-2` [compound 136, N-(1-isopropyl-7′-(trifluoromethyl)spiro[azetidine-3,4′-chromeno[4,3-d]thiazol]-2′-yl)-4,6-dimethoxypyrimidine-5-carboxamide], the IC50 was less than 0.1 µM.

With `COc1ncnc(OC)c1C(=O)Nc1nc2c(s1)C1(COC1)Oc1cc(C#N)ccc1-2` [compound 137, N-(7-cyanospiro[chromeno[4,3-d]thiazole-4,3′-oxetan]-2-yl)-4,6-dimethoxypyrimidine-5-carboxamide], the IC50 is not below 10 µM.

For `COc1ncnc(OC)c1C(=O)Nc1nc2c(s1)C1(COC1)Oc1cc(C3CC3)ccc1-2` [compound 138, N-(7-cyclopropylspiro[chromeno[4,3-d]thiazole-4,3′-oxetan]-2-yl)-4,6-dimethoxypyrimidine-5-carboxamide], the IC50 fell in the range of 0.1 to 1 µM.

In turn, `COc1ncnc(OC)c1C(=O)Nc1nc2c(s1)C1(COC1)Oc1cc(C(C)(C)O)ccc1-2` [compound 139, N-(7-(2-hydroxypropan-2-yl)spiro[chromeno[4,3-d]thiazole-4,3′-oxetan]-2-yl)-4,6-dimethoxypyrimidine-5-carboxamide] gave an IC50 not below 10 µM.

`COc1ncnc(OC)c1C(=O)Nc1nc2c(s1)C1(COC1)Oc1cc(C(C)(C)C#N)ccc1-2` [compound 140, N-(7-(2-cyanopropan-2-yl)spiro[chromeno[4,3-d]thiazole-4,3′-oxetan]-2-yl)-4,6-dimethoxypyrimidine-5-carboxamide]: the IC50 is 1 to 10 µM.

Consider `COc1ncnc(OC)c1C(=O)Nc1nc2c(s1)-c1ccc(C(F)(F)F)cc1OC21CCS(=O)(=O)CC1` [compound 141, N-(1′,1′-dioxido-7-(trifluoromethyl)-2′,3′,5′,6′-tetrahydrospiro[chromeno[3,4-d]thiazole-4,4′-thiopyran]-2-yl)-4,6-dimethoxypyrimidine-5-carboxamide], for which the IC50 lay within 1 to 10 µM.

The compound `CCC1(CC)Oc2cc(C(F)(F)F)ccc2-c2nc(NC(=O)c3c(OC)cccc3OC)sc21` [compound 142, N-(4,4-diethyl-7-(trifluoromethyl)-4H-chromeno[4,3-d]thiazol-2-yl)-2,6-dimethoxybenzamide] gave an IC50 not below 10 µM.

For `CCC1(CC)Oc2cc(C(F)(F)F)ccc2-c2nc(N3CN(C)c4ncnc(OC)c4C3=O)sc21` [compound 143, 3-(4,4-diethyl-7-(trifluoromethyl)-4H-chromeno[4,3-d]thiazol-2-yl)-5-methoxy-1-methyl-2,3-dihydropyrimido[4,5-d]pyrimidin-4 (1H)-one], the IC50 was not below 10 µM.

With `COc1ncnc(O)c1C(=O)Nc1nc2c(s1)C1(COC1)Oc1cc(C(C)C)ccc1-2` [compound 144, 4-hydroxy-N-(7-isopropylspiro[chromeno[4,3-d]thiazole-4,3′-oxetan]-2-yl)-6-methoxypyrimidine-5-carboxamide], the IC50 is not below 10 µM.

`COc1ncnc(OC)c1C(=O)Nc1nc2c(s1)C1(CN(C(C)C)C1)Oc1cc(C(C)C)ccc1-2` [compound 145, N-(1,7′-diisopropylspiro[azetidine-3,4′-chromeno[4,3-d]thiazol]-2′-yl)-4,6-dimethoxypyrimidine-5-carboxamide] showed an IC50 of 0.1 to 1 µM.

`COc1ncnc(OC)c1C(=O)Nc1nc2c(s1)C1(CN(C(C)C)C1)Oc1cc(Br)ccc1-2` [compound 146, N-(7′-bromo-1-isopropylspiro[azetidine-3,4′-chromeno[4,3-d]thiazol]-2′-yl)-4,6-dimethoxypyrimidine-5-carboxamide] showed an IC50 of less than 0.1 µM.

For `COc1ncnc(OCCN(C)C)c1C(=O)Nc1nc2c(s1)C1(COC1)Oc1cc(C(C)C)ccc1-2` [compound 147, 4-(2-(dimethylamino)ethoxy)-N-(7-isopropylspiro[chromeno[4,3-d]thiazole-4,3′-oxetan]-2-yl)-6-methoxypyrimidine-5-carboxamide], the IC50 lay in the range of 1 to 10 µM.

Turning to `COc1ncnc(OC)c1C(=O)Nc1nc2c(s1)C1(CN(C(C)C)C1)Oc1cc(C#N)ccc1-2` [compound 148, N-(7′-cyano-1-isopropylspiro[azetidine-3,4′-chromeno[4,3-d]thiazol]-2′-yl)-4,6-dimethoxypyrimidine-5-carboxamide], the IC50 was 0.1 to 1 µM.

The compound `COc1ncnc(OC)c1C(=O)Nc1nc2c(s1)C1(CN(C3CC3)C1)Oc1cc(C(F)(F)F)ccc1-2` [compound 149, N-(1-cyclopropyl-7′-(trifluoromethyl)spiro[azetidine-3,4′-chromeno[4,3-d]thiazol]-2′-yl)-4,6-dimethoxypyrimidine-5-carboxamide] gave an IC50 of less than 0.1 µM.

As to `COc1ncnc(OC)c1C(=O)Nc1nc2c(s1)C1(CN(CC(C)C)C1)Oc1cc(C(F)(F)F)ccc1-2` [compound 150, N-(1-isobutyl-7′-(trifluoromethyl)spiro[azetidine-3,4′-chromeno[4,3-d]thiazol]-2′-yl)-4,6-dimethoxypyrimidine-5-carboxamide], the IC50 was less than 0.1 µM.

Take `COc1ncnc(OCCN(C)C)c1C(=O)Nc1nc2c(s1)C1(COC1)Oc1cc(C(F)(F)F)ccc1-2` [compound 151, 4-(2-(dimethylamino)ethoxy)-6-methoxy-N-(7-(trifluoromethyl)spiro[chromeno[4,3-d]thiazole-4,3′-oxetan]-2-yl)pyrimidine-5-carboxamide]: the IC50 lay within 1 to 10 µM.

Take `COc1ncnc(OC)c1C(=O)Nc1nc2c(s1)C1(CCN(C(C)C)CC1)Oc1cc(C(F)(F)F)ccc1-2` [compound 152, N-(1′-isopropyl-7-(trifluoromethyl)spiro[chromeno[4,3-d]thiazole-4,4′-piperidin]-2-yl)-4,6-dimethoxypyrimidine-5-carboxamide]: the IC50 lay in the range of 0.1 to 1 µM.

`COc1ncnc(OC)c1C(=O)Nc1nc2c(s1)C1(CN(C3(OC)CC3)C1)Oc1cc(C(F)(F)F)ccc1-2` [compound 153, 4,6-dimethoxy-N-(1-(1-methoxycyclopropyl)-7′-(trifluoromethyl)spiro[azetidine-3,4′-chromeno[4,3-d]thiazol]-2′-yl)pyrimidine-5-carboxamide] displayed an IC50 of less than 0.1 µM.

As for `COc1ncnc(OC)c1C(=O)Nc1nc2c(s1)C1(CCN(C3CC3)CC1)Oc1cc(C(F)(F)F)ccc1-2` [compound 154], the IC50 lay within 0.1 to 1 µM.

In turn, `COc1ncnc(OC)c1C(=O)Nc1nc2c(s1)C1(CCN(CC(C)C)CC1)Oc1cc(C(F)(F)F)ccc1-2` [compound 155, N-(1′-isobutyl-7-(trifluoromethyl)spiro[chromeno[4,3-d]thiazole-4,4′-piperidin]-2-yl)-4,6-dimethoxypyrimidine-5-carboxamide] showed an IC50 of less than 0.1 µM.

As for `COc1ncnc(OC)c1C(=O)Nc1nc2c(s1)C1(CN(C(=O)OC(C)(C)C)C1)Oc1cnccc1-2` [compound 156, tert-butyl 2′-(4,6-dimethoxypyrimidine-5-carboxamido)spiro[azetidine-3,4′-thiazolo[4′,5′: 4,5]pyrano[2,3-c]pyridine]-1-carboxylate], the IC50 fell in the range of 1 to 10 µM.

Compound `COCCN1CC2(C1)Oc1cc(C(F)(F)F)ccc1-c1nc(NC(=O)c3c(OC)ncnc3OC)sc12` [compound 157, 4,6-dimethoxy-N-(1-(2-methoxyethyl)-7′-(trifluoromethyl)spiro[azetidine-3,4′-chromeno[4,3-d]thiazol]-2′-yl)pyrimidine-5-carboxamide] registered an IC50 of less than 0.1 µM.

With `CCC1(CC)Oc2cc(C(F)(F)F)ccc2-c2nc(NC(=O)c3c(OC)nc(OC)nc3OC)sc21` [compound 158, N-(4,4-diethyl-7-(trifluoromethyl)-4H-chromeno[4,3-d]thiazol-2-yl)-2,4,6-trimethoxypyrimidine-5-carboxamide], the IC50 is not below 10 µM.

`COc1ncnc(OC)c1C(=O)Nc1nc2c(s1)C1(CN(C3CCC3)C1)Oc1cc(C(F)(F)F)ccc1-2` [compound 159, N-(1-cyclobutyl-7′-(trifluoromethyl)spiro[azetidine-3,4′-chromeno[4,3-d]thiazol]-2′-yl)-4,6-dimethoxypyrimidine-5-carboxamide] showed an IC50 of less than 0.1 µM.

`COc1ncnc(OC)c1C(=O)Nc1nc2c(s1)C1(CN(C3COC3)C1)Oc1cc(C(F)(F)F)ccc1-2` [compound 160, 4,6-dimethoxy-N-(1-(oxetan-3-yl)-7′-(trifluoromethyl)spiro[azetidine-3,4′-chromeno[4,3-d]thiazol]-2′-yl)pyrimidine-5-carboxamide]: the IC50 is 0.1 to 1 µM.

Regarding `CCC1(CC)Oc2cc(C(F)(F)F)ccc2-c2nc(NC(=O)c3c(OC)nn(C)c3Br)sc21` [compound 161, 5-bromo-N-(4,4-diethyl-7-(trifluoromethyl)-4H-chromeno[4,3-d]thiazol-2-yl)-3-methoxy-1-methyl-1H-pyrazole-4-carboxamide], the IC50 was not below 10 µM.
